Reference: patent US10793563B2, “GCN2 inhibitors and uses thereof” (Merck Patent GmbH, priority 2018, dated 2020)
pEC50, pIC50: −log10 of the molar value.

Assays:
[1] = biological target: intracellular GCN2 (phosphorylation of the GCN2 substrate eIF2α) (Homo sapiens (Human), UniProt Q9P2K8); assay: GCN2 Cellular Inhibition Assay (AlphaScreen SureFire P-eIF2α Ser51, borrelidin-treated U2OS cells); assay type: cell-based; conditions: 10 μM borrelidin, 1 h, phosphorylated eIF2α Ser51, read-out: GCN2 Biomarker (IC50)
Sequence of intracellular GCN2 (phosphorylation of the GCN2 substrate eIF2α) (Q9P2K8 whole entry): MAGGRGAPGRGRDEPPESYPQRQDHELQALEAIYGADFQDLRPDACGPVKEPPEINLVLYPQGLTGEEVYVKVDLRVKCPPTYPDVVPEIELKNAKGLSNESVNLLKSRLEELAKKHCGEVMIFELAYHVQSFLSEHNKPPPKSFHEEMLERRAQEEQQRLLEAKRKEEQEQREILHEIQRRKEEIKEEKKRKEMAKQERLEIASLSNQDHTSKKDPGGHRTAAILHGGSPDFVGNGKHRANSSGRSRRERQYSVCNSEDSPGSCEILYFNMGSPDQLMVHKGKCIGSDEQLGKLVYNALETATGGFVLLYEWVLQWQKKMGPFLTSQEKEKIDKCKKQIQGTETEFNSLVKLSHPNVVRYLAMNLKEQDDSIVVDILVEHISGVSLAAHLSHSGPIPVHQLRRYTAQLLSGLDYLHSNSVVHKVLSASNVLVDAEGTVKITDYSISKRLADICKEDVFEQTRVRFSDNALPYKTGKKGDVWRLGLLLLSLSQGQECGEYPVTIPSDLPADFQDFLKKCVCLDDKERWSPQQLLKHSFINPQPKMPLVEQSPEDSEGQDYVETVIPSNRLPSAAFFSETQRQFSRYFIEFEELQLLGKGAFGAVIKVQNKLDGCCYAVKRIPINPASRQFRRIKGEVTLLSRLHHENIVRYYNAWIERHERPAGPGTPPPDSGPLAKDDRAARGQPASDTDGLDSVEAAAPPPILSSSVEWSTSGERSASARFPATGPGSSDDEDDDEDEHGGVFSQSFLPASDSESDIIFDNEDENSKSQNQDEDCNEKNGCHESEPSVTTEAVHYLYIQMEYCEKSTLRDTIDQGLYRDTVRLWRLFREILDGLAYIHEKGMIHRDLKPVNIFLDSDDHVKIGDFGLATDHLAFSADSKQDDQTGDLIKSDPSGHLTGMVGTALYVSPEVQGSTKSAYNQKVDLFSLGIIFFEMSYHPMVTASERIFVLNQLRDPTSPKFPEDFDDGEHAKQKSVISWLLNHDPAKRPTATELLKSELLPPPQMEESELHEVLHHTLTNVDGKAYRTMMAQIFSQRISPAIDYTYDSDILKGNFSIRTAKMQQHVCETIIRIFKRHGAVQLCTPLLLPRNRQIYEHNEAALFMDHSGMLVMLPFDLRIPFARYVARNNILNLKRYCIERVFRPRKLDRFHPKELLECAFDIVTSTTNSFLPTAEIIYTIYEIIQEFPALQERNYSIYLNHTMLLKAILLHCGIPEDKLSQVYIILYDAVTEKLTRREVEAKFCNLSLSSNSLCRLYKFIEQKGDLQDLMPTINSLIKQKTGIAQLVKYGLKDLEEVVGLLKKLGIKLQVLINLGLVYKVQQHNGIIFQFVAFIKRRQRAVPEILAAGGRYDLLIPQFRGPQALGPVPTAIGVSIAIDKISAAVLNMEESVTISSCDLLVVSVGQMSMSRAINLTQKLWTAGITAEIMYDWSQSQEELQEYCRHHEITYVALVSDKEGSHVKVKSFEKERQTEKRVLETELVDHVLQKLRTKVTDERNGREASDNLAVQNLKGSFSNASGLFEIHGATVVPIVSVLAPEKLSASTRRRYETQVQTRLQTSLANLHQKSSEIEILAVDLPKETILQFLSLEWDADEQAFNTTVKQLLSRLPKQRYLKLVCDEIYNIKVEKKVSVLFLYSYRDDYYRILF
Outline: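 U2OS cells adhered overnight, then given compound (top 40 μM, 4-fold serial dilutions) plus 10 μM borrelidin for 1 h at 37 °C. Lysates assayed for eIF2α phospho-Ser51 by AlphaScreen SureFire; % inhibition versus borrelidin-only wells.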

GCN2 kinase = GCN2 kinase (Homo sapiens (Human), UniProt Q9P2K8); assay: GCN2 Enzyme Inhibition Assay (Transcreener ADP2 fluorescence polarization); assay type: biochemical; conditions: 280 μM ATP, 200 μM (RS)7 peptide, 4 nM GCN2, 25° C.
Sequence of GCN2 kinase (Q9P2K8 whole entry): as above
Outline: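 Transcreener ADP2 fluorescence polarization detection of ADP from 4 nM GCN2 with (RS)7 substrate in 25 mM Tris-HCl pH 7.5, 50 mM NaCl, 10 mM MgCl2, 1 mM DTT. Compound pre-incubated with enzyme 10 min at 25 °C; reaction started by ATP, run 1 h at 25 °C. IC50 and Ki(app) by tight-binding fit.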

[2] = system: primary human pan T-cells; assay: Human IL-2 Assay for GCN2 Inhibition (IL-2 secretion from T cells in low amino acid condition); assay type: cell-based; conditions: IL-2 secretion from human T cells stimulated with anti-CD3/CD28 in low amino acid condition, ELISA; for pEC50: Homo sapiens, T-cell, 96 h, read-out: IL2/T-cell EC50; for IL2/T-cell EC50: 96 hours
From the text: Tumor microenvironment is profoundly immuno-suppressive. This may be attributed to the depletion of amino acids (like arginine and tryptophan) which triggers the activation of GCN2 in immune cells, including T cell and myeloid cells. In T cells, activation of GCN2 leads to reduce effector functions of CD8 T cells and induction and/or maintenance of immuno-suppressive T-regs. Inhibition of that immuno-suppressive response by GCN2 inhibitors enables an anti-cancer immune response by activating effector T-cells. Herein we describe an in-vitro system we established using human T-cells stimulated in low amino acid condition in order to engage the GCN2 biology. The method described involves the modulation of IL-2 levels secreted by human T cells in responses to the GCN2 inhibitors disclosed herein.
Amino acid-free RPMI was reconstituted with all but one of the amino acids found in standard RMPI (e.g. Arginine, Tryptophan), 10% charcoal-stripped fetal bovine serum, 100 Units/mL penicillin and 0.1 mg/mL streptomycin. Primary human pan T-cells were isolated using Pan T Cell Isolation Kit, human (MACS Miltenyi biotech Cat # Order no. 130-096-535) from apheresis cones and 5×104 pan T-cells per well. The purified T cells are seeded in Nunc™ 96-Well Polystyrene Round Bottom Microwell Plates (the cells are rested in No TRP media in a 15 ml falcon tube in the incubator for 30-45 minutes while titrations for tryptophan and the GCN2 inhibitor compound are made) A plate matrix was developed to titrate both a GCN2 inhibitor and the amino acid of interest ranging from “No Amino Acid” condition, up to the concentration found in the regular RPMI media (20 μM for TRP and 950 μM for Arginine). The cells were incubated for 30 min at 37° C. with the GCN2 inhibitor and then stimulated with 5×104 anti-CD3/CD28 Dynabeads® per well. After 96 hours of incubation the IL-2 level in the supernatant were measured using ELISA (R&D systems Cat # DY202 (Human IL-2 DuoSet ELISA). Data were plotted in GraphPad Prism software and EC50 is calculated.

C[C@@H]1CN(c2nccc(-c3cnc4ccc(Cl)cn34)n2)C[C@H](c2cn[nH]c2)O1 [I-248, 6-Chloro-3-{2-[(2R,6S)-2-methyl-6-(1H-pyrazol-4-yl)-morpholin-4-yl]-pyrimidin-4-yl}-imidazo[1,2-a]pyridine] was tested, and the pIC50 [1] was > 6.30, the pIC50 (GCN2 kinase) was > 8.00 and the pEC50 [2] was 6.30 to 7.00.
C[C@H]1CN(c2nccc(-c3cnc4ccc(C(F)(F)F)cn34)n2)C[C@H](c2cn[nH]c2)O1 [I-134, (2S,6S)-2-methyl-6-(1H-pyrazol-4-yl)-4-(4-(6-(trifluoromethyl)imidazo[1,2-a]pyridin-3-yl)pyrimidin-2-yl)morpholine] was tested, and the pIC50 [1] was > 6.30, the pIC50 (GCN2 kinase) was 7.00 to 8.00 and the pEC50 [2] was < 6.30.
In the case of C[C@@H]1C[C@H](c2cn[nH]c2)CN(c2nccc(-c3cnc4ccc(C5CC5)cn34)n2)C1 [I-249, 6-Cyclopropyl-3-{2-[(3R,5R)-3-methyl-5-(1H-pyrazol-4-yl)-piperidin-1-yl]-pyrimidin-4-yl}-imidazo[1,2-a]pyridine], the pIC50 [1] was > 6.30, the pIC50 (GCN2 kinase) was > 8.00 and the pEC50 [2] was 6.30 to 7.00.
For C[C@@H]1C[C@H](N=S(C)(C)=O)CN(c2nccc(-c3cnc4ccc(C(F)F)cn34)n2)C1 [I-499, (((3 S,5R)-1-(4-(6-(difluoromethyl)imidazo[1,2-a]pyridin-3-yl)pyrimidin-2-yl)-5-methylpiperidin-3-yl)imino)dimethyl-λ6-sulfanone], the pIC50 [1] was > 6.30, the pIC50 (GCN2 kinase) was > 8.00 and the pEC50 [2] was < 6.30.
Cc1[nH]ncc1[C@H]1[C@@H](C)N(c2ccnc(-c3cnc4ccc(C(F)(F)F)cn34)n2)CCN1C1COC1 [I-366] was tested, and the pIC50 [1] was > 6.30, the pIC50 (GCN2 kinase) was > 8.00 and the pEC50 [2] was > 7.00.
For Cc1n[nH]nc1[C@@H]1C[C@H](C)CN(c2ccnc(-c3cnc4ccc(C(F)(F)F)cn34)n2)C1 [I-409, 3-(4-((3S,5R)-3-methyl-5-(5-methyl-2H-1,2,3-triazol-4-yl)piperidin-1-yl)pyrimidin-2-yl)-6-(trifluoromethyl)imidazo[1,2-a]pyridine], the pIC50 [1] was > 6.30, the pIC50 (GCN2 kinase) was 7.00 to 8.00 and the pEC50 [2] was < 6.30.
For C[C@H]1C[C@@H](C(N)=O)CN(c2ccnc(-c3cnc4ccc(C(F)(F)F)cn34)n2)C1 [I-148, (3R,5S)-5-methyl-1-(2-(6-(trifluoromethyl)imidazo[1,2-a]pyridin-3-yl)pyrimidin-4-yl)piperidine-3-carboxamide], the pIC50 [1] was > 6.30, the pIC50 (GCN2 kinase) was > 8.00 and the pEC50 [2] was 6.30 to 7.00.
For C[C@H]1CN(c2nccc(-c3cnc4ccc(C(F)(F)F)cn34)n2)[C@@H](C)C(c2cn[nH]c2)N1 (stereo partly drawn) [I-170, 3-(2-((2S,5S)-2,5-dimethyl-3-(1H-pyrazol-4-yl)piperazin-1-yl)pyrimidin-4-yl)-6-(trifluoromethyl)imidazo[1,2-a]pyridine], the pIC50 [1] was > 6.30, the pIC50 (GCN2 kinase) was 7.00 to 8.00 and the pEC50 [2] was 6.30 to 7.00.
With C[C@H]1C[C@@H](N=S(C)(C)=O)CN(c2ccnc(-c3cnc4ccc(C(F)(F)F)cn34)n2)C1 (stereo in doubt) [I-123, Dimethyl(((3R,5S)-5-methyl-1-(2-(6-(trifluoromethyl)imidazo[1,2-a]pyridin-3-yl)pyrimidin-4-yl)piperidin-3-yl)imino)-λ6-sulfanone] the pIC50 [1] was > 6.30, the pIC50 (GCN2 kinase) was 7.00 to 8.00 and the pEC50 [2] was < 6.30. The “IL2/T-cell EC50” value [2] was “− (“−” for not active)”.
In the case of CC1CCC(C(N)=O)CN1c1ccnc(-c2cnc3ccc(C(F)(F)F)cn23)n1 (stereo not shown) [I-200, 6-methyl-1-(2-(6-(trifluoromethyl)imidazo[1,2-a]pyridin-3-yl)pyrimidin-4-yl)piperidine-3-carboxamide], the pIC50 [1] was > 6.30, the pIC50 (GCN2 kinase) was > 8.00 and the pEC50 [2] was 6.30 to 7.00.
Cc1cnc(N2C[C@H](C)C[C@H](c3cn[nH]c3)C2)nc1-c1cnc2ccc(Cl)cn12 [I-185, 6-chloro-3-(5-methyl-2-((3R,5R)-3-methyl-5-(1H-pyrazol-4-yl)piperidin-1-yl)pyrimidin-4-yl)imidazo[1,2-a]pyridine] was tested, and the pIC50 [1] was > 6.30, the pIC50 (GCN2 kinase) was 7.00 to 8.00 and the “IL2/T-cell EC50” value [2] was “− (“−” for not active)”.
For CC1CC1CN1CCN(c2ccnc(-c3cnc4ccc(C(F)(F)F)cn34)n2)CC1c1cn[nH]c1 (stereo not shown) [I-473, 3-(4-(4-((2-methylcyclopropyl)methyl)-3-(1H-pyrazol-4-yl)piperazin-1-yl)pyrimidin-2-yl)-6-(trifluoromethyl)imidazo[1,2-a]pyridine], the pIC50 [1] was > 6.30, the pIC50 (GCN2 kinase) was > 8.00 and the pEC50 [2] was 6.30 to 7.00.
